Our source for the MIC90, Activity and IC50 values is ChEMBL document CHEMBL4311978, “Transferrin conjugates of antitubercular drug isoniazid: Synthesis and in vitro efficacy” (Eur J Med Chem, 2019).

Converted amounts (≈) assume the structure as drawn. The source made the active and inactive calls. No cut-off for these calls is given here.

Assay [1] relates to Mycobacterium tuberculosis. Put plainly: Antitubercular activity against Mycobacterium tuberculosis H37Rv assessed as reduction in bacterial cell viability incubated for 5 days by microplate alamar blue assay. Format: functional. Particulars: 120 h. (Alamar Blue is a resazurin reagent that responds to reducing activity.)
In assay [2] the test system is Mycobacterium tuberculosis. In words: Antitubercular activity against Mycobacterium tuberculosis H37Rv infected in human THP1 cells assessed as reduction in CFU incubated for 48 hrs. Format: functional, organism-based.
The next assay deals with THP-1. In words: Cytotoxicity against human THP1 cells assessed as reduction in cell viability incubated for 48 hrs by MTT assay. The assay is classed as cell-based. Particulars: THP-1, 48 h.

One may read the MIC90 as the lowest concentration that inhibits either 90% of growth or 90% of the strains tested, depending on the study. Broadly, the IC50 is the midpoint of a concentration-inhibition curve. Regarding `NNC(=O)c1ccncc1` [ISONIAZID], the MIC90 in assay [1] turned out to be 0.25 mg/L (≈ 1.82 µM). Also, in assay [2], the outcome was Active. The IC50 in the assay on THP-1 is greater than 25 mg/L.
